# Data published in patent US12370167B2, “Blood-brain barrier permeability regulator and use thereof” (ZHEJIANG UNIVERSITY, priority 2019, dated 2025).
# Legend:
# [1] = test system: blood-brain barrier permeability; test: Brain distribution of DiR-labelled Angiopep-2-modified glycolipid nano-delivery system after SC79 in in situ glioma model; type: in vivo, BABL/c nude mice; settings: SC79 5 mg/kg tail vein 24 hours before the DiR-labelled system; brain taken after 4 hours; vs tumor-bearing control group
# Method: FIG. 12: Regulation of increase in the blood-brain barrier permeability and enhancement of distribution of Angiopep-2-modified glycolipid nano-delivery system in the brain by SC79. SC79 was injected into tail veins of tumor-bearing animals at an administration dose of 5 mg/kg. After 24 hours, the Angiopep-2-modified glycolipid nano-delivery system encapsulated with near-infrared fluorescent probe DiR was injected into tail veins. After 4 hours, the intact brain of the nude mice was taken by cardiac perfusion.
# Male BABL/c nude mice (20+2 g) were used as the model animals. U87-luci glioma cells expressing luciferase were inoculated in the striatum area of nude mice at a concentration of 5×10^5 cells/5 μL by means of a brain stereotaxic instrument (inoculation coordinates, 0.8 mm on the anterior side of bregma, 2 mm on the right side, and 3 mm in depth), to construct an in situ glioma model. SC79 diluted with 0.2% injection grade Tween 80 solution was injected into tail veins at an administration dose of 5 mg/kg. After 24 hours, the Angiopep-2-modified glycolipid nano-delivery system encapsulated with near-infrared fluorescent probe DiR was injected into tail veins. After 4 hours, the intact brain of the nude mice was taken by cardiac perfusion. […]
# [2] = test system: bEnd.3 cells; bEnd.3 co-incubated with U87 MG; test: Real-time transmembrane resistance of physiological and pathological blood-brain barrier models after SC79; type: cell-based; settings: SC79 5 μg/mL
# Method: FIG. 9: In vitro time-dependent regulation of transmembrane resistance of the blood-brain barrier by SC79. A Transwell model of brain microvascular endothelial cells bEnd.3 was used to mimic the physiological blood-brain barrier. A Transwell model of co-incubated brain microvascular endothelial cells bEnd.3 and glioma cell U87 MG was used to mimic the pathological blood-brain barrier. SC79 (5 μg/mL) was applied to the Transwell chamber. The cell transmembrane resistance was real-time monitored by a cell resistance meter (n=5).
# Brain microvascular endothelial cells bEnd.3 were used as model cells of a blood-brain barrier. 0.5 mL suspension of well-grown bEnd.3 cells was inoculated in the chamber of a 12-well Transwell plate with a pore size of 0.4 μm at a cell density of 1×10^5/well. 1.5 mL of fresh culture medium was supplemented in the outer chamber. The culture medium was refreshed every other day. Incubation was continued for 15 days at 37° C. and 5% CO2. […]
# The physiological blood-brain barrier and the pathological blood-brain barrier, as respectively constructed according to the procedures described in the above sections of 1 and 2 of Example 2, were used as a model, respectively. […] The cell transmembrane resistance was real-time monitored.
# [3] = test system: neurons; settings: mouse model of permanent local cerebral ischemia; cited from earlier work
# [4] = test system: blood-brain barrier permeability; test: Evans blue permeation into the brain after SC79; type: in vivo, BABL/c nude mice
# Method: FIG. 10: In vivo regulation of increase in the blood-brain barrier permeability and increase in the amount of Evans blue permeated into the brain by SC79. SC79 was injected into tail veins of tumor-bearing animals at an administration dose of 5 mg/kg and 10 mg/kg, respectively. After 24 hours, an Evans blue solution was injected into tail veins at an administration dose of 5 mg/kg. After 4 hours, the intact brain of the nude mice was taken by cardiac perfusion.
# FIG. 11: In vivo time-dependent regulation of increase in the blood-brain barrier permeability by SC79. SC79 was injected into tail veins of tumor-bearing animals at an administration dose of 5 mg/kg and 10 mg/kg, respectively. After 0 hour, 0.5 hour, and 24 hours, an Evans blue solution was injected into tail veins at an administration dose of 5 mg/kg. After 4 hours, the intact brain of the nude mice was taken by cardiac perfusion.
# (§1) Male BABL/c nude mice (20+2 g) were used as the model animals. SC79 diluted with 0.2% injection grade Tween 80 solution was injected into tail veins at an administration dose of 5 mg/kg, 10 mg/kg. After 24 hours, an Evans blue solution was injected into tail veins at an administration dose of 5 mg/kg. After 4 hours, the intact brain of the nude mice was taken by cardiac perfusion. The distribution intensity of Evans blue in the brain tissue was qualitatively observed with a small animal live imaging instrument.
# as §1, with “nude mice (20±2 g) were” for “nude mice (20+2 g) were”, “mg/kg. After 0.5 hour, and after 24 hours,” for “mg/kg. After 24 hours,”
# [5] = test system: brain microvascular endothelial cells bEnd.3; test: Transmembrane resistance of physiological blood-brain barrier Transwell model, SC79 dose dependence; type: cell-based; settings: SC79 0, 5, 10 μg/mL; 24 hours; n=5
# Method: A Transwell model of brain microvascular endothelial cells bEnd.3 was used to mimic the physiological blood-brain barrier. SC79 at different concentrations (0, 5 μg/mL, 10 μg/mL) was applied to the Transwell chamber. After 24 hours, the cell transmembrane resistance was detected by a cell resistance meter (n=5).
# Brain microvascular endothelial cells bEnd.3 were used as model cells of a blood-brain barrier. 0.5 mL suspension of well-grown bEnd.3 cells was inoculated in the chamber of a 12-well Transwell plate with a pore size of 0.4 μm at a cell density of 1×10^5/well. 1.5 mL of fresh culture medium was supplemented in the outer chamber. The culture medium was refreshed every other day. Incubation was continued for 15 days at 37° C. and 5% CO2. When the cell transmembrane resistance value was greater than 150 ohm·cm^2 (Ω·cm^2), it may be regarded that a model of physiological blood-brain barrier was obtained.
# A protein kinase B activator SC79 at different concentrations (0, 5 μg/mL, 10 μg/mL) was added into the Transwell chamber in the model of physiological blood-brain barrier. After 24 hours of the drug action, the Transwell chamber with bEnd.3 cells grown was transferred to another 12-well plate, and washed with PBS for 3 times. […] After the cells were equilibrated at 37° C. for 15 minutes, the cell transmembrane resistance was detected by a cell resistance meter.
smiles,measurement,setting,value
CCOC(=O)C1=C(N)Oc2ccc(Cl)cc2C1C(C#N)C(=O)OCC (centres unmarked) [SC79],distribution of Angiopep-2-modified glycolipid nano-delivery system in the brain,[1],increased
same,effect in increasing the blood-brain barrier permeability,[2]; after 24 hours of the drug action,most significant effect
same,cell transmembrane resistance over time,"[2]; physiological and pathological models, real-time",decreased in a time-dependent manner
same,survival of neurons,[3],increases the survival of neurons
same,amount of Evans blue permeated into the brain,"[4]; SC79 5 mg/kg, 10 mg/kg tail vein, Evans blue after 24 hours, vs tumor-bearing control group",increased
same,amount of Evans blue permeated into the brain,"[4]; SC79 tail vein, Evans blue 0.5 hour after SC79",increased
same,amount of Evans blue permeated into the brain,"[4]; SC79 tail vein, Evans blue 24 hours after SC79",the highest
same,cell transmembrane resistance,[5],dose-dependent regulation of transmembrane resistance
